The record followed here is patent US8461328B2, “Tricyclic heterocyclic compounds, compositions and methods of use thereof” (Genentech, Inc., priority 2010, dated 2013).

Format in all cases: biochemical
One assay addresses T1, TYK2 (Homo sapiens, UniProt P29597).
T1 construct: made in house; host or cells: SF9 insect cells (baculovirus)
T1 sequence (P29597 873-1187): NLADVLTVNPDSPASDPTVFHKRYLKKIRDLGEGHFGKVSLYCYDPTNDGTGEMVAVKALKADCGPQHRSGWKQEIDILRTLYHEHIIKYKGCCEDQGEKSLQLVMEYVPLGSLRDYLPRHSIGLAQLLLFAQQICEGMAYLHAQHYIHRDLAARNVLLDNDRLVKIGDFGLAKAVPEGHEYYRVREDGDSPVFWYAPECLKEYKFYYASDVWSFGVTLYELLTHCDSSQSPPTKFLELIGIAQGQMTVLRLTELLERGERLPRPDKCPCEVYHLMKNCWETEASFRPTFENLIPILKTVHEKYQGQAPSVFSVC
The assay is described as follows: TYK2 inhibition (Table 4).

Another assay deals with T2, JAK3 (Homo sapiens, UniProt P52333).
T2 construct: made in house; host or cells: SF9 insect cells (baculovirus)
T2 sequence (P52333 783-1124): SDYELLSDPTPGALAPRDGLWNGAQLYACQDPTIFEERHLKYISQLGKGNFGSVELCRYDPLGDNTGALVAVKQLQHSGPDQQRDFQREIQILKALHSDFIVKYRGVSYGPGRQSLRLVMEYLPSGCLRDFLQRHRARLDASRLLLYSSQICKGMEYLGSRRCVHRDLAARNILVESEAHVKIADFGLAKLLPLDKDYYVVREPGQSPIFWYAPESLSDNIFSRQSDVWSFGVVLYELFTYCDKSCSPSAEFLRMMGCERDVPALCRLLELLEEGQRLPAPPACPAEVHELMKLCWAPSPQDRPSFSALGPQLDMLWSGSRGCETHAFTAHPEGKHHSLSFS
Kind of assay: JAK3 inhibition (Table 4).

Another assay concerns the target T3, JAK2 (Homo sapiens, UniProt O60674).
T3 construct: made in house; host or cells: SF9 insect cells (baculovirus)
The assay is described as follows: JAK2 inhibition (Table 4). To be noted: read-out: JAK2 Ki.

The target in the next assay is T4, JAK1 (Homo sapiens, UniProt P23458).
T4 construct: made in house; host or cells: SF9 insect cells (baculovirus)
T4 sequence (P23458 852-1154): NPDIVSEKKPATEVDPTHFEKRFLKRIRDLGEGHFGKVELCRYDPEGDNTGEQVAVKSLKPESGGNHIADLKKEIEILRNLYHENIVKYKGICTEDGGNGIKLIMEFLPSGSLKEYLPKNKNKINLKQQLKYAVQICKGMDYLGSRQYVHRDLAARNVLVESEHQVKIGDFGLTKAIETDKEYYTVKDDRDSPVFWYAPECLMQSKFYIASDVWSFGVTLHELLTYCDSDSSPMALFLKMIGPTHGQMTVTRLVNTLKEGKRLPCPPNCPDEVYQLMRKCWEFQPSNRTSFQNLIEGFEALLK
The assay is described as follows: JAK1 inhibition (Table 4).

Like-named read-outs stand apart in the source and are kept apart here.

T3 sequence (O60674 812-1132): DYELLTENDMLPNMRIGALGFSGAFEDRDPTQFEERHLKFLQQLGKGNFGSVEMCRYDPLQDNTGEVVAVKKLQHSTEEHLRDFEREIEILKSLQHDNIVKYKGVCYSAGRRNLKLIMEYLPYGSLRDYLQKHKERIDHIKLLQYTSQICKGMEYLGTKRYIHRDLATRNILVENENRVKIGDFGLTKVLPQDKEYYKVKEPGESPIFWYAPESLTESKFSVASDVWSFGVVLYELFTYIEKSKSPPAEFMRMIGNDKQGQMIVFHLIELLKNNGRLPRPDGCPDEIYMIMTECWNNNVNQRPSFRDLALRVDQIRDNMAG

Turning to `CC1CN(CCC#N)CCC1n1cnc2cnc3[nH]ccc3c21` (racemic) [Example 323, 3-[3-Methyl-4-(6H-1,3,5,6-tetraaza-as-indacen-1-yl)-piperidin-1-yl]-propionitrile], the Ki is 7.81 nM at TYK2, 6.77 nM on JAK3 (read-out: JAK3 Ki), 1.77 nM at JAK2 and 0.81 nM on JAK1 (read-out: JAK1 Ki).

`c1cnc(N2CCC(n3cnc4cnc5[nH]ccc5c43)CC2)cn1` [Example 72, 1-(1-Pyrazin-2-yl-piperidin-4-yl]-1,6-dihydro-1,3,5,6-tetraaza-as-indacene]: the Ki is 56.7 nM at TYK2, 97.8 nM at JAK3 (read-out: JAK3 Ki), 10.9 nM on JAK2 and 4.26 nM at JAK1 (read-out: JAK1 Ki).

Regarding `CC1CC(n2cnc3cnc4[nH]ccc4c32)CCN1Cc1ccccc1` (racemic) [Example 127, 1-(1-Benzyl-2-methyl-piperidin-4-yl)-1,6-dihydro-1,2,3,5,6-tetraaza-as-indacene], the Ki on TYK2 was determined as 26.1 nM; at JAK3 (read-out: JAK3 Ki) it was 8.46 nM; on JAK2 it was 1.82 nM; at JAK1 (read-out: JAK1 Ki), 2.6 nM.

Consider `O=C(CO)N1CCC(n2cnc3cnc4[nH]ccc4c32)CC1` [Example 437, 2-Hydroxy-1-[4-(6H-1,3,5,6-tetraaza-as-indacen-1-yl)-piperidin-1-yl]-ethanone], for which the inhibition constant Ki at TYK2 was 55.6 nM; at JAK3 (read-out: JAK3 Ki) it was 153 nM; on JAK2, 11.2 nM; on JAK1 (read-out: JAK1 Ki) it was 3.87 nM.

`N#CCCN1CCCCC(n2cnc3cnc4[nH]ccc4c32)C1` (racemic) [Example 989, 3-[3-(6H-1,3,5,6-Tetraaza-as-indacen-1-yl)-azepan-1-yl]-propionitrile]: the Ki at TYK2 was 42 nM; on JAK3 (read-out: JAK3 Ki) it was 39.4 nM; on JAK2, 14.6 nM; on JAK1 (read-out: JAK1 Ki) it was 10.9 nM.

In the case of `CCOC(=O)NCCc1nc2cnc3[nH]ccc3c2n1C1CCN(CC)CC1(F)F` (single isomer, unassigned) [Example 679, {2-[1-(1-Ethyl-3,3-difluoro-piperidin-4-yl)-1,6-dihydro-1,2,3,5,6-tetraaza-as-indacen-2-yl]-ethyl}-carbamic acid ethyl ester], the Ki at TYK2 was 413 nM; on JAK3 (read-out: JAK3 Ki), 27.7 nM; on JAK2, 55.5 nM; at JAK1 (read-out: JAK1 Ki), 7.45 nM.

In the case of `CC1CN(S(C)(=O)=O)CCC1n1cnc2cnc3[nH]ccc3c21` (racemic) [Example 344, 1-(1-Methanesulfonyl-3-methyl-piperidin-4-yl)-1,6-dihydro-1,3,5,6-tetraaza-as-indacene], the Ki on TYK2 is 329 nM; at JAK3 (read-out: JAK3 Ki) it was 80.4 nM; on JAK2, 30.3 nM; on JAK1 (read-out: JAK1 Ki) it was 15.7 nM.

Consider `N#CCCN1CCC(n2nnc3cnc4[nH]ccc4c32)CC1` [Example 232, 3-[4-(6H-1,2,3,5,6-Pentaaza-as-indacen-1-yl)-piperidin-1-yl]-propionitrile], for which the Ki on TYK2 came to 19.3 nM; on JAK3 (read-out: JAK3 Ki), 53.4 nM; at JAK2, 3.35 nM; on JAK1 (read-out: JAK1 Ki) it was 2.03 nM.

Regarding `CN1CCCCCC1C(=O)N1CCC(n2cnc3cnc4[nH]ccc4c32)CC1` (racemic) [Example 953, (1-Methyl-azepan-2-yl)-[4-(6H-1,3,5,6-tetraaza-as-indacen-1-yl)-piperidin-1-yl]-methanone], the Ki on TYK2 turned out to be 1830 nM; on JAK3 (read-out: JAK3 Ki), 3480 nM; on JAK2, 455 nM; at JAK1 (read-out: JAK1 Ki) it was 45.7 nM.

Turning to `N#CCCN1CCC(n2c(Cc3cccc(C#N)c3)nc3cnc4[nH]ccc4c32)CC1` [Example 405, 3-{1-[1-(2-Cyano-ethyl)-piperidin-4-yl]-1,6-dihydro-1,3,5,6-tetraaza-as-indacen-2-ylmethyl}-benzonitrile], the Ki at TYK2 amounted to 445 nM; at JAK3 (read-out: JAK3 Ki) it was 524 nM; at JAK2, 252 nM; on JAK1 (read-out: JAK1 Ki), 30.6 nM.

For the compound `N#CCC1CCC(n2c(CO)nc3cnc4[nH]ccc4c32)CC1` (mixture of isomers) [Example 643, [4-(2-Hydroxymethyl-6H-1,2,3,5,6-tetraaza-as-indacen-1-yl)-cyclohexyl]-acetonitrile], the Ki at TYK2 was found to be 0.51 nM; on JAK3 (JAK3 Ki), 5.26 nM; on JAK2, 0.96 nM; on JAK1 (JAK1 Ki), 0.27 nM.

As for `O=C(CC(F)(F)F)N1CCC[C@@H](n2cnc3cnc4[nH]ccc4c32)C1` [Example 296], the inhibition constant Ki at TYK2 worked out at 16.2 nM; at JAK3 (read-out: JAK3 Ki), 19.5 nM; at JAK2 it was 4.75 nM; on JAK1 (read-out: JAK1 Ki) it was 3.3 nM.

For the compound `OC1CCCC(n2cnc3cnc4[nH]ccc4c32)C1` (single isomer, unassigned) [Example 560, 3-(6H-1,3,5,6-Tetraaza-as-indacen-1-yl)-cyclohexanol], the Ki on TYK2 was 47.3 nM; on JAK3 (read-out: JAK3 Ki), 37.5 nM; at JAK2, 13.2 nM; on JAK1 (read-out: JAK1 Ki), 8.14 nM.

Turning to `c1cc2c(ncc3ncn([C@@H]4CCCN(Cc5cocn5)C4)c32)[nH]1` [Example 8, 1-((R)-1-Oxazol-4-ylmethyl-piperidin-3-yl)-1,6-dihydro-1,2,3,5,6-tetraaza-as-indacene], the Ki at TYK2 worked out at 134 nM; at JAK3 (read-out: JAK3 Ki), 68.9 nM; on JAK2, 43.8 nM; at JAK1 (read-out: JAK1 Ki), 12.9 nM.

On to `FC1CNCCC1n1nnc2cnc3[nH]ccc3c21` (racemic) [Example 518, 1-(3-Fluoro-piperidin-4-yl)-1,6-dihydro-1,2,3,5,6-pentaaza-as-indacene], for which the inhibition constant Ki at TYK2 was determined as 1990 nM; at JAK3 (read-out: JAK3 Ki) it was 1450 nM; on JAK2, 854 nM; at JAK1 (read-out: JAK1 Ki), 227 nM.

For the compound `CC(C)(O)Cc1nc2cnc3[nH]ccc3c2n1C1CCN(CCC#N)CC1` [Example 346, 3-{4-[2-(2-Hydroxy-2-methyl-propyl)-6H-1,3,5,6-tetraaza-as-indacen-1-yl)-piperidin-1-yl}-propionitrile], the Ki at TYK2 is 140 nM; on JAK3 (read-out: JAK3 Ki), 51.8 nM; on JAK2, 31.5 nM; on JAK1 (read-out: JAK1 Ki) it was 13.9 nM.

Regarding `N#C[C@H]1CC[C@H](n2c(CO)nc3cnc4[nH]ccc4c32)CC1` [Example 642, Trans 4-(2-hydroxymethyl-6H-1,2,3,5,6-tetraaza-as-indacen-1-yl)cyclohexane carbonitrile], the Ki on TYK2 was determined as 7.22 nM; at JAK3 (read-out: JAK3 Ki), 185 nM; on JAK2, 20.9 nM; on JAK1 (read-out: JAK1 Ki), 2.06 nM.

On to `C[C@@H](O)c1nc2cnc3[nH]ccc3c2n1[C@H]1CC[C@H](NCC(F)(F)F)CC1` [Example 614, Trans (R)-1-{1-[4-(2,2,2-trifluoro-ethylamino)-cyclohexyl]-1,6-dihydro-1,2,3,5,6-tetraaza-as-indacen-2-yl}-ethanol], for which the Ki stood at 3.01 nM on TYK2, 63.3 nM at JAK3 (read-out: JAK3 Ki), 13.2 nM on JAK2 and 0.76 nM at JAK1 (read-out: JAK1 Ki).

With `CCN1CC[C@@H](n2c(CCNS(=O)(=O)C(C)C)nc3cnc4[nH]ccc4c32)[C@@H](F)C1` [Example 810, Propane-2-sulfonic acid {2-[1-((3S,4R)-1-ethyl-3-fluoro-piperidin-4-yl)-1,6-dihydro-1,3,5,6-tetraaza-as-indacen-2-yl]-ethyl}-amide], the inhibition constant Ki was found to be 385 nM at TYK2, 181 nM on JAK3 (read-out: JAK3 Ki), 44.7 nM at JAK2 and 5.72 nM on JAK1 (read-out: JAK1 Ki).

As for `Cc1nc2cnc3[nH]ccc3c2n1[C@H](C)CO` [Example 421, (R)-2-(2-Methyl-6H-1,3,5,6-tetraaza-as-indacen-1-yl)-propan-1-ol], the inhibitory constant (Ki) stood at 2340 nM at TYK2, 433 nM on JAK3 (read-out: JAK3 Ki), 747 nM at JAK2 and 251 nM on JAK1 (read-out: JAK1 Ki).

In the case of `C[C@@H](O)c1nc2cnc3[nH]ccc3c2n1[C@H]1CC[C@@H](NCC(F)F)C1` [Example 1005, (R)-1-{1-[(1S,3R)-3-(2,2-Difluoro-ethylamino)-cyclopentyl]-1,6-dihydro-1,3,5,6-tetraaza-as-indacen-2-yl}-ethanol], the inhibition constant (Ki) on TYK2 was found to be 18.1 nM; at JAK3 (read-out: JAK3 Ki), 26.3 nM; on JAK2, 86.1 nM; on JAK1 (read-out: JAK1 Ki) it was 2.36 nM.

`C[C@@H](O)c1nc2cnc3[nH]ccc3c2n1C1CCN(Cc2ncccc2F)CC1` [Example 682, (R)-1-{1-[1-(3-Fluoro-pyridin-2-ylmethyl)-piperidin-4-yl]-1,6-dihydro-1,2,3,5,6-tetraaza-as-indacen-2-yl}-ethanol]: the Ki at TYK2 stood at 387 nM; on JAK3 (read-out: JAK3 Ki), 31 nM; on JAK2, 103 nM; on JAK1 (read-out: JAK1 Ki) it was 8.63 nM.

On to `CC(C)NC(=O)C(C)c1nc2cnc3[nH]ccc3c2n1C1CCN(CCC#N)CC1` (racemic) [Example 172, Racemic 2-{1-[1-(2-Cyano-ethyl)-piperidin-4-yl]-1,6-dihydro-1,2,3,5,6-tetraaza-as-indacene-2-yl}-N-isopropyl-propionamide], for which the Ki turned out to be 2770 nM on TYK2, 22.6 nM at JAK3 (read-out: JAK3 Ki), 251 nM at JAK2 and 141 nM on JAK1 (read-out: JAK1 Ki).

Consider `N#CCCN1CCC(n2c(COC3CCCC3)nc3cnc4[nH]ccc4c32)CC1` [Example 844, 3-[4-(2-Cyclopentyloxymethyl-6H-1,3,5,6-tetraaza-as-indacen-1-yl)-piperidin-1-yl]-propionitrile], for which the Ki at TYK2 was determined as 732 nM; on JAK3 (read-out: JAK3 Ki) it was 169 nM; on JAK2 it was 177 nM; at JAK1 (read-out: JAK1 Ki) it was 97.1 nM.

Consider `CC(C)N[C@H]1CC[C@H](n2cnc3cnc4[nH]ccc4c32)CC1` [Example 214, Isopropyl-[4-(6H-1,2,3,5,6-tetraaza-as-indacen-1-yl)-cyclohexyl]-amine], for which the Ki at TYK2 worked out at 82.5 nM; on JAK3 (read-out: JAK3 Ki) it was 303 nM; on JAK2 it was 43.9 nM; on JAK1 (read-out: JAK1 Ki), 5.64 nM.

Usually Ki stands for a measure of affinity in units of concentration, obtained from inhibition or displacement.
